# Measured values published in patent US7495104B2, “Quinoline or quinazoline derivatives inhibiting auto-phosphorylation of fibroblast growth factor receptors” (Kirin Beer Kabushiki Kaisha, priority 2001, dated 2009).
# Counter-ions that a name gives are not always drawn.
# Target: Bek (Homo sapiens, UniProt P21802)
# Experiment: Inhibitory activity against Bek-autophosphorylation using ELISA method in OCUM-2MD3 cells
# Type: cell-based
# Conditions: 1 hr with compound, read-out: IC50 (concentration necessary for inhibiting 50% of Bek-phosphorylation)
# Procedure: Human scirrhus stomach cancer cells OCUM-2MD3 (kindly provided by Dr. Kosei Hirakawa, Osaka City University) were cultured in an RPMI medium containing 10% fetal calf serum (purchased from ICN) within a 5% carbon dioxide incubator until 50 to 90% confluent. The harvested cells were seeded onto 96-well flat-bottom plate in RPMI containing 0.1% fetal calf serum at 3.5×10^4 cells per well, followed by cultivation at 37° C. overnight. A solution of the test compound in dimethyl sulfoxide was added to each well, and the cultivation was continued at 37° C. for additional one hr. The medium was removed, and 50 μl of lysis buffer (20 mM HEPES (pH 7.4), 150 mM NaCl, 0.2% Triton X-100, 10% glycerol, 5 mM sodium orthovanadylate, 5 mM disodium ethylenediaminetetraacetate, and 2 mM Na4P2O7) was then added thereto. The mixture was shaken at 4° C. for 2 hr to prepare cell extracts.
# Separately, phosphate buffered saline (50 μl, pH 7.4) containing 5 μg/ml of anti-phospho-tyrosine antibody (PY20; purchased from Transduction Laboratories) was added to a microplate for ELISA (Maxisorp; purchased from NUNC), followed by standing at 4° C. overnight to form a solid phase on the wells. After washing of the plate, 300 μl of a blocking solution was added, followed by standing at room temperature for 2 hr to perform blocking. After washing, the whole quantity of the cell extracts was transferred to the wells, and the plate was then allowed to stand at 4° C. overnight. After washing, an anti-Bek antibody (Bek (C-17), purchased from Santa Cruz Biotechnology) or Anti-Human K-sam Rabbit IgG Affinity Purity (purchased from IBL Co., Ltd.) was allowed to react at room temperature for one hr, and, after washing, a peroxidase-labeled anti-rabbit Ig antibody (purchased from Amersham) was allowed to react at room temperature for one hr. After washing, a chromophoric substrate for peroxidase (purchased from Sumitomo Bakelite Co., Ltd.) was added thereto to initiate a reaction. After a suitable level of color development, a reaction termination solution was added to stop the reaction, and the absorbance at 450 nm was measured with a microplate reader. The Bek-phosphorylation activity for each well was determined by presuming the absorbance without the addition of the medicament to be 100% Bek-phosphorylation activity and the absorbance with the addition of a large excess of a positive control (N-{4-[(6,7-dimethoxy-4-quinolyl)oxy]phenyl}-N′-(3,3-dimethylbutyl)urea, 1000 nM) to be 0% Bek-phosphorylation activity. The concentration of the test compound was varied on several levels, the Bek-phosphorylation inhibitory activity was determined for each case, and the concentration of the test compound necessary for inhibiting 50% of Bek-phosphorylation (IC50) was calculated.
# Sequence of Bek (P21802 431-767 limits assumed): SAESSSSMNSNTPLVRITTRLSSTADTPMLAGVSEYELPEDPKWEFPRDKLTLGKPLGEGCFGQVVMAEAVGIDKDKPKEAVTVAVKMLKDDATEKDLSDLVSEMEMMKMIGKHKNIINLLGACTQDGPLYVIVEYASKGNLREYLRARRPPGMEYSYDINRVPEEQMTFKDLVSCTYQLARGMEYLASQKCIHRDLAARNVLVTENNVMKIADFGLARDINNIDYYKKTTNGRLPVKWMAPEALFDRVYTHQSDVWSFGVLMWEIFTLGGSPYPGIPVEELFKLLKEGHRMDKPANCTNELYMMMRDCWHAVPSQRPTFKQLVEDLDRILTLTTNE
row,SMILES,IC50 [nM]
1,"CCCN(CCO)CCOc1cc2nccc(Oc3ccc(NC(=O)NCCC(C)(C)C)cc3)c2cc1OC [Compound 369, 1-(3,3-Dimethyl-butyl)-3-[4-(7-{2-[(2-hydroxy-ethyl)-propyl-amino]-ethoxy}-6-methoxy-quinolin-4-yloxy)-phenyl]-urea]",42.3
2,"COc1cc2c(Oc3ccc(NC(=O)NCCC(C)(C)C)c(F)c3)ccnc2cc1OCCCN1CC(C)OC(C)C1 (stereo not drawn) [Compound 325, 1-(3,3-Dimethyl-butyl)-3-(4-{7-[3-(2,6-dimethyl-morpholin-4-yl)-propoxy]-6-methoxy-quinolin-4-yloxy}-2-fluoro-phenyl)-urea]",34.2
3,"COc1cc2nccc(Oc3ccc(NC(=O)NC(C)(C)CC(C)(C)C)cc3)c2cc1OC [Compound 143, 1-[4-(6,7-Dimethoxy-quinolin-4-yloxy)-phenyl]-3-(1,1,3,3-tetramethyl-butyl)-urea]",192
4,"COc1cc2c(Oc3ccc(NC(=O)NCCC(C)(C)C)cc3F)ccnc2cc1OCCCN1CCC(CO)CC1 [Compound 285, 1-(3,3-Dimethyl-butyl)-3-(3-fluoro-4-{7-[3-(4-hydroxymethyl-piperidin-1-yl)-propoxy]-6-methoxy-quinolin-4-yloxy}-phenyl)-urea]",22.8
5,"COc1cc2c(Oc3ccc(NC(=O)NCCC(C)(C)C)cc3)ccnc2cc1OCC(O)CN1CC(C)OC(C)C1 (stereo not drawn) [Compound 250, 1-(3,3-Dimethyl-butyl)-3-(4-{7-[3-(2,6-dimethyl-morpholin-4-yl)-2-hydroxy-propoxy]-6-methoxy-quinolin-4-yloxy}-phenyl)-urea]",< 10
6,"COc1cc2nccc(Oc3ccc(Nc4nn(-c5ccccc5)c(=O)o4)cc3)c2cc1OC [Compound 76, 5-[4-(6,7-Dimethoxyquinolin-4-yloxy)phenylamino]-3-phenyl-3H-[1,3,4]oxazol-2-one]",7560
7,"COc1cc2nccc(Oc3cc(C)c(Nc4ccc(C(C)(C)C)cc4)cc3C)c2cc1OC [Compound 17, (4-Tert-butylphenyl)-[4-(6,7-dimethoxyquinolin-4-yloxy)-2,5-dimethylphenyl]amine]",5610
8,"COc1cc2c(Oc3ccc(NC(=O)NCCC(C)(C)C)c(Cl)c3)ccnc2cc1OCCCCN [Compound 175, 1-{4-[7-(4-Amino-butoxy)-6-methoxy-quinolin-4-yloxy]-2-chloro-phenyl}-3-(3,3-dimethyl-butyl)-urea]",21.7
9,"COc1cc2c(Oc3ccc(Nc4ccc(C(C)(C)C)cc4)cc3)ccnc2cc1OCCCCN1CCOCC1 [Compound 25, (4-Tert-butylphenyl)-{4-[6-methoxy-7-(4-morpholin-4-ylbutoxy)-quinolin-4-yloxy]phenyl}amine]",199
10,"COc1cc2nccc(Oc3ccc(NC(=O)NC4CC(C)CC(C)(C)C4)c(Cl)c3)c2cc1OC (stereo not drawn) [Compound 107, 1-[2-Chloro-4-(6,7-dimethoxy-quinolin-4-yloxy)-phenyl]-3-(3,3,5-trimethyl-cyclohexyl)-urea]",< 10
11,"COc1cc2c(Oc3ccc(NC(=O)NCCC(C)(C)C)cc3)ccnc2cc1OCCN(CCO)C(C)C [Compound 370, 1-(3,3-Dimethyl-butyl)-3-[4-(7-{2-[(2-hydroxy-ethyl)-isopropyl-amino]-ethoxy}-6-methoxy-quinolin-4-yloxy)-phenyl]-urea]",130
12,"CCC(CO)(CO)NCCOc1cc2nccc(Oc3ccc(NC(=O)NCCC(C)(C)C)cc3)c2cc1OC [Compound 354, 1-(4-{7-[2-(1,1-Bis-hydroxymethyl-propylamino)-ethoxy]-6-methoxy-quinolin-4-yloxy}-phenyl)-3-(3,3-dimethyl-butyl)-urea]",38.4
13,"COc1cc2c(Oc3ccc(NC(=O)NCCC(C)(C)C)c(Cl)c3)ccnc2cc1OCC1CCN(CCO)CC1 [Compound 170, 1-(2-Chloro-4-{7-[1-(2-hydroxy-ethyl)-piperidin-4-ylmethoxy]-6-methoxy-quinolin-4-yloxy}-phenyl)-3-(3,3-dimethyl-butyl)-urea]",24.4

# Results, then the molecule that gave them:
row,IC50 [nM],SMILES
1,22,"COc1cc2c(Oc3ccc(NC(=O)NCCC(C)(C)C)c(F)c3)ccnc2cc1OCCCN1CCC(CO)CC1 [Compound 303, 1-(3,3-Dimethyl-butyl)-3-(2-fluoro-4-{7-[3-(4-hydroxymethyl-piperidin-1-yl)-propoxy]-6-methoxy-quinolin-4-yloxy}-phenyl)-urea]"
2,243,"CCN(CC)CCCOc1cc2nccc(Oc3ccc(Nc4ccc(C(C)(C)C)cc4)cc3)c2cc1OC [Compound 47, N1-[4-(Tert-butyl)phenyl]-4-({7-[3-(diethylamino)propoxy]-6-methoxy-4-quinolyl}oxy)aniline]"
3,< 10,"COc1cc2c(Oc3ccc(NC(=O)NCCC(C)(C)C)cc3)ccnc2cc1OCCCN1CCC[C@H]1CO [Compound 263, 1-(3,3-Dimethyl-butyl)-3-(4-{7-[3-(2-hydroxymethyl-pyrrolidin-1-yl)-propoxy]-6-methoxy-quinolin-4-yloxy}-phenyl)-urea]"
4,94.2,"COc1cc2c(Oc3ccc(Nc4ccc(C(C)(C)C)cc4)cc3)ccnc2cc1OCC(O)CN1CC(C)CC(C)C1 (stereo not drawn) [Compound 254, 1-{4-[4-(4-Tert-butyl-phenylamino)-phenoxy]-6-methoxy-quinolin-7-yloxy}-3-(3,5-dimethyl-piperidin-1-yl)-propan-2-ol]"
5,401,"COc1cc2c(Oc3ccc(Nc4ccc(C(C)(C)C)cc4)cc3)ccnc2cc1OCCN1CCC(N2CCCCC2)CC1 [Compound 242, {4-[7-(2-[1,4′]Bipiperidineyl-1′-yl-ethoxy)-6-methoxy-quinolin-4-yloxy]-phenyl}-(4-tert-butyl-phenyl)-amine]"
6,379,"COc1cc2c(Oc3ccc(Nc4ccc(C(C)(C)C)cc4)cc3Cl)ccnc2cc1OCCN1CCC(O)CC1 [Compound 307, 1-(2-{4-[4-(4-Tert-butyl-phenylamino)-2-chloro-phenoxy]-6-methoxy-quinolin-7-yloxy}-ethyl)-piperidin-4-ol]"
7,403,"COc1cc2nccc(Oc3ccc(Nc4ccc(C(C)(C)C)cc4)cc3)c2cc1OCCN1CCC(CO)CC1 [Compound 355, [1-(2-{4-[4-(4-Tert-butyl-phenylamino)-phenoxy]-7-methoxy-quinolin-6-yloxy}-ethyl)-piperidin-4-yl]-methanol]"
8,26.7,"COc1cc2c(Oc3ccc(NC(=O)NCCC(C)(C)C)cc3)ccnc2cc1OCC(O)CN1CCC(Cc2ccccc2)CC1 (stereo not drawn) [Compound 260, 1-(4-{7-[3-(4-Benzyl-piperidin-1-yl)-2-hydroxy-propoxy]-6-methoxy-quinolin-4-yloxy}-phenyl)-3-(3,3-dimethyl-butyl)-urea]"
9,230,"COc1cc2c(Oc3ccc(Nc4ccc(C(C)(C)C)cc4)cc3)ccnc2cc1OCCN(CCO)C1CCCCC1 [Compound 364, 2-[(2-{4-[4-(4-Tert-butyl-phenylamino)-phenoxy]-6-methoxy-quinolin-7-yloxy}-ethyl)-cyclohexyl-amino]-ethanol]"
10,1100,"COc1cc2c(Oc3ccc(Nc4ccc(C(C)(C)C)cc4)c(Cl)c3)ccnc2cc1OCCCN1CCC(CCO)CC1 [Compound 294, 2-[1-(3-{4-[4-(4-Tert-butyl-phenylamino)-3-chloro-phenoxy]-6-methoxy-quinolin-7-yloxy}-propyl)-piperidin-4-yl]-ethanol]"
11,30.6,"COc1cc2c(Oc3ccc(Nc4ccc(C(C)(C)C)cc4)cc3)ccnc2cc1OCCCN(CCO)CCO [Compound 51, 2-[(3-{4-[4-(4-Tert-butylphenylamino)phenoxy]-6-methoxy-quinolin-7-yloxy}propyl)-(2-hydroxyethyl)amino]ethanol]"
12,373,"COc1cc2nccc(Oc3ccc(NC(=O)NCCC(C)(C)C)cc3)c2cc1OCCCN1CCC(CO)CC1 [Compound 323, 1-(3,3-Dimethyl-butyl)-3-(4-{6-[3-(4-hydroxymethyl-piperidin-1-yl)-propoxy]-7-methoxy-quinolin-4-yloxy}-phenyl)-urea]"
13,3510,"COc1cc2nccc(Oc3ccc(Nc4ccsc4)cc3)c2cc1OC [Compound 73, [4-(6,7-Dimethoxyquinolin-4-yloxy)phenyl]thiophen-3-ylamine]"
14,52.1,"COc1cc2c(Oc3ccc(NC(=O)NCCC(C)(C)C)cc3)ccnc2cc1OCCN1CCOCC1 [Compound 112, 1-(3,3-Dimethyl-butyl)-3-{4-[6-methoxy-7-(2-morpholin-4-yl-ethoxy)-quinolin-4-yloxy]-phenyl}-urea hydrochloride]"
